From patent US10927100B2, “Degradable imidazolium oligomer and polymer for antimicrobial applications” (AGENCY FOR SCIENCE, TECHNOLOGY AND RESEARCH, priority 2017, dated 2021)
In brackets after ≈: the same amount, converted by molar mass. Read-outs that look alike come from different tables or passages of the source.

How the values were obtained:
[1] = tested on: P. aeruginosa; test: Agar well diffusion assay; type: cell-based, Pseudomonas aeruginosa
Description: (§1) The degradable oligomers were dissolved in ethanol and glycerol at 0.5% w/v concentration. Agar plates were inoculated with bacteria and 6 mm wells were cut, into which 20 μL of solution was added. Plates were inoculated at 37° C. for 24 hours and zone of inhibitions measured using a pair of vernier calipers.

[2] = tested on: S. aureus; test: Agar well diffusion assay; type: cell-based, Staphylococcus aureus
Description: as §1

[3] = Oligomer and polymer degradation by 1H NMR spectroscopy; type: physicochemical; conditions: pH 6-8 buffered solutions, ambient conditions
Description: Sorenson's phosphate buffer (pH, 6.0, 7.0, 8.0), tris buffer (pH 6.0, 7.0, 8.0) and sodium citrate-citric acid buffer (pH 3.0, 4.0, 5.0) were prepared in deionized water at concentrations of 100 mM, as well as 10 mM for tris buffer solution. […] A 4 mg sample of imidazolium oligomer or polymer was dissolved in deuterated buffer solution with care taken to ensure complete solution of the compounds. […] Degradation of the carbonate and ester-linked compounds was observed by disappearance of the signal of the methylene protons adjacent to the carbonate or ester functional group, and/or appearance of the signal of the methylene protons adjacent to the hydroxyl group in the degradation product.

[4] = tested on: E. coli; test: Agar well diffusion assay; type: cell-based, Escherichia coli
Description: as §1

[5] = tested on: S. aureus; test: Resistance studies, serial passage at sub-MIC; type: cell-based, Staphylococcus aureus; conditions: for resistance to polymers IBN-CP1 or IBN-CP3 after growth with degradation product: media containing 2, 8, 16 and 100 μg/ml over one month
Description: The method was adapted from that of Yang and co-authors with modification [K. Fukushima, S. Liu, H. Wu, A. C. Engler, D. J. Coady, H. Maune, J. Pitera, A. Nelson, N. Wiradharma, S. Venkataraman, Y. Huang, W. Fan, J. Y. Ying, Y. Y. Yang, J. L. Hedrick. Nature Comm, 2013, 4:2861]. Drug resistance was induced by treating S. aureus repeatedly with degradable oligomers. First MICs of the tested oligomers were determined against S. aureus using the broth microdilution method. Then serial passaging was initiated by transferring bacterial suspension grown at the sub-MIC of the oligomers (½ of MIC at that passage) and was subjected to another MIC assay. After 24 hours incubation period, cells grown at the sub-MIC of the test compounds/antibiotics were once again transferred and assayed for MIC. The MIC against S. aureus was tested for 16 passages.
Drug-resistant behaviour of S. aureus was evaluated by recording the changes in the MIC normalized to that of the first passage. Conventional antibiotics vancomycin was used as the control.

[6] = Critical gelation concentration in alcohols; type: physicochemical
Description: Gels were prepared by weighing the imidazolium oligomers directly into 4 mL glass vials and subsequently adding a known weight or volume of the solvent. The vials containing both the imidazolium and the solvent were either heated or sonicated to aid the dissolution process. The vials were left standing over night at ambient conditions. The gel state was evaluated by the stable-to-inversion-of-a-test-tube method. The critical gelation concentration (CGC) is defined as the lowest concentration of the gelator which leads to a stable gel.

[7] = tested on: rat red blood cells; test: Haemolysis; type: cell-based
Description: Fresh rat red blood cells (RBCs) were diluted with PBS buffer to give an RBC stock suspension (4 vol % blood cells). A 100 μL aliquot of RBC suspension was added into a 96-well plate containing 100 μL oligomer solutions of various concentrations (ranging from 4 mg mL^−1 to 2 μg mL^−1 in serial two-fold dilutions in PBS). After 1 hour incubation at 37° C., the contents of each well were pipetted into a micro-centrifuge tube and centrifuged at 2000 rpm for 5 minutes. Aliquots (100 μL) of the supernatant were transferred to a new 96-well plate. Haemolytic activity was determined as a function of haemoglobin release by measuring OD576 of 100 μL of the supernatant using a microplate reader (TECAN). A control solution that contained only PBS was used as a reference for 0% haemolysis. Absorbance of red blood cells lysed with 0.5% Triton-X was taken as 100% haemolysis. The data were expressed as mean and S.D. of four replicates, and the tests were repeated two times.

[8] = tested on: E. coli and S. aureus; test: SEM observation of bacteria treated with oligomers; type: cell-based; conditions: 4MIC, exposure two minutes
Description: Bacterial cells (3×10^8 CFU/mL) grown in MHB without or with the oligomers at 4MIC for 2 minutes were collected and centrifuged at 5000 rpm for 5 minutes. The precipitates were washed twice with PBS buffer. Then the samples were fixed with glutaraldehyde (2.5%) for 2 hours followed by washing with DI water. Dehydration of the samples was performed using a series of ethanol/water solution (35%, 50%, 75%, 90%, 95% and 100%). The dehydrated samples were mounted on copper tape. After drying for 2 days, the samples were further coated with platinum for imaging with JEOL JSM-7400F (Japan) field emission scanning electron microscope operated at an accelerating voltage of 5 keV.

[9] = tested on: Pseudomonas aeruginosa (Gram-negative); test: Minimum inhibitory concentration, microdilution assay; type: cell-based; conditions: for MIC: Pseudomonas aeruginosa
Description: (§2) Staphylococcus aureus (ATCC 6538, Gram-positive), Escherichia coli (ATCC 8739, Gram-negative), Pseudomonas aeruginosa (Gram-negative), and Candida albicans (ATCC 10231, fungus) were used as representative microorganisms to challenge the antimicrobial functions of the imidazolium salts. All bacteria and fungus were stored frozen at −80° C., and were grown overnight at 37° C. in Mueller Hinton Broth (MHB) prior to experiments. Fungus was grown overnight at 22° C. in Yeast Mold (YM) broth. […] The plates were incubated at 37° C. for 24 hours with constant shaking speed at 300 rpm. […] PBS solution containing microbial cells alone were used as negative controls. The assay was performed in four replicates and the experiments were repeated at least two times.

[10] = tested on: Candida albicans (ATCC 10231, fungus); test: as above; type: cell-based; conditions: for MIC: Candida albicans, ATCC10231
Description: as §2

[11] = tested on: Staphylococcus aureus (ATCC 6538, Gram-positive); test: as above; type: cell-based
Description: as §2

[12] = tested on: Escherichia coli (ATCC 8739, Gram-negative); test: as above; type: cell-based; conditions: for MIC: Escherichia coli, ATCC8739
Description: as §2

[13] = 0.5% w/v solution in glycerol, compared with ethanol solution
[14] = rat red blood cells, 1 hour, 37° C.
[15] = Staphylococcus aureus, ATCC6538; read-out: MIC S. aureus

SMILES	HC10 [7, 14]	MIC P. aeruginosa [9]	MIC C. albicans [10]	MIC S. aureus [11]	MIC E. coli [12]	also measured
CCCCCCCCn1cc[n+](Cc2ccc(Cn3cc[n+](Cc4ccc(C[n+]5ccn(Cc6ccc(OCn7cc[n+](Cc8ccc(Cn9cc[n+](Cc%10ccc(Cn%11cc[n+](CCCCCCCC)c%11)cc%10)c9)cc8)c7)cc6)c5)cc4)c3)cc2)c1.[Br-].[Br-].[Br-].[Br-].[Br-].[Br-] [IBN-HC8]	>2000 µg/mL	125 mg/L	125 mg/L	16 mg/L	8 mg/L	zone of inhibition ([1]; 0.5% w/v in ethanol): comparable zones of inhibition compared to ethanol; zone of inhibition [1, 13]: comparable efficacy; zone of inhibition ([2]; 0.5% w/v in ethanol): larger zones of inhibition than ethanol on its own; zone of inhibition [2, 13]: comparable efficacy; degradation in buffered solutions [3]: not significantly degraded; zone of inhibition ([4]; 0.5% w/v in ethanol): larger zones of inhibition than ethanol on its own; zone of inhibition [4, 13]: comparable efficacy; passage at which MIC increase was observed ([5]; sub-MIC levels, 16 passages): 8 passage; Critical gelation concentration ([6]; ethanol): 1.5 wt %; Critical gelation concentration ([6]; n-butanol): 1.0 wt %; Critical gelation concentration ([6]; n-propanol): 0.5 wt %; bacterial cell walls in SEM images [8]: disrupted and subsequently dissolved
OCc1ccccc1Cn1cc[n+](Cc2ccccc2C[n+]2ccn(Cc3ccccc3CO)c2)c1.[Br-].[Br-] [F-diol5]	>2000 µg/mL	>2000 mg/L	>2000 mg/L	125 mg/L	250 mg/L	
OCc1ccc(Cn2cc[n+](Cc3ccc(C[n+]4ccn(Cc5ccc(CO)cc5)c4)cc3)c2)cc1.[Br-].[Br-] [F-diol2]	>2000 µg/mL	>2000 mg/L	>2000 mg/L	2000 mg/L	>2000 mg/L	
OCc1ccccc1Cn1cc[n+](C/C=C/C[n+]2ccn(Cc3ccccc3CO)c2)c1.[Br-].[Br-] [F-diol4]		>2000 mg/L	>2000 mg/L	250 mg/L	1000 mg/L	
CN[C@H](CC(C)C)C(=O)N[C@H]1C(=O)N[C@@H](CC(N)=O)C(=O)N[C@H]2C(=O)N[C@H]3C(=O)N[C@H](C(=O)N[C@H](C(=O)O)c4cc(O)cc(O)c4-c4cc3ccc4O)[C@H](O)c3ccc(c(Cl)c3)Oc3cc2cc(c3O[C@@H]2O[C@H](CO)[C@@H](O)[C@H](O)[C@H]2O[C@H]2C[C@](C)(N)[C@H](O)[C@H](C)O2)Oc2ccc(cc2Cl)[C@H]1O [Vancomycin, reference compound]	>2000 µg/mL					change of MIC value over serial passages ([5]; sub-MIC levels, 16 passages): quadrupled; passage at which MIC increase was observed ([5]; sub-MIC levels, 16 passages): 5 passage; MIC ([11]; Staphylococcus aureus, ATCC6538, read-out: MIC S. aureus): 2 mg/L (≈ 1.38 µM)
CCCCCCCCn1cc[n+](Cc2ccc(Cn3cc[n+](Cc4ccc(C[n+]5ccn(Cc6ccc(C(=O)O)cc6)c5)cc4)c3)cc2)c1.[Br-].[Br-].[Br-] [F1-COOH]		>2000 mg/L	500 mg/L	62 mg/L	31 mg/L	
OCc1ccc(Cn2cc[n+](Cc3ccccc3Cn3cc[n+](Cc4ccc(CO)cc4)c3)c2)cc1 [F-diol3]	>2000 µg/mL					resistance to polymers IBN-CP1 or IBN-CP3 after growth with degradation product [5]: did not develop resistance; MIC ([9]; read-out: MIC P. aeruginosa): > 4000 mg/L; MIC ([10]; read-out: MIC C. albicans): > 2000 mg/L; MIC [11, 15]: 500 mg/L; MIC ([12]; read-out: MIC E. coli): > 2000 mg/L
OCc1ccc(Cn2cc[n+](C/C=C/Cn3cc[n+](Cc4ccc(CO)cc4)c3)c2)cc1 [F-diol1]	>2000 µg/mL					resistance to polymers IBN-CP1 or IBN-CP3 after growth with degradation product [5]: did not develop resistance; HC10 [7]: >2000 ppm; MIC ([9]; read-out: MIC P. aeruginosa): 2000 mg/L; MIC ([9]; read-out: MIC PA): 2000 mg/L; MIC ([10]; read-out: MIC C. albicans): > 2000 mg/L; MIC ([10]; read-out: MIC CA): > 2000 mg/L; MIC [11, 15]: 125 mg/L; MIC ([11]; Staphylococcus aureus, ATCC6538; read-out: MIC SA): 12 mg/L; MIC ([12]; read-out: MIC E. coli): > 2000 mg/L; MIC ([12]; read-out: MIC EC): > 2000 mg/L
CCCCCCCCn1cc[n+](Cc2ccc(Cn3cc[n+](Cc4ccc(C[n+]5ccn(Cc6ccc(CO)cc6)c5)cc4)c3)cc2)c1.[Br-].[Br-].[Br-] [F1-CH2OH]	>2000 µg/mL	2000 mg/L	250 mg/L	>2000 mg/L	2000 mg/L	hemolysis at highest concentration ([7]; 2000 μg/ml): did not induce hemolysis
CCn1cc(C(=O)O)c(=O)c2cc(F)c(N3CCNCC3)cc21 [norfloxacin, reference compound]						MIC value relative to its original value ([5]; by the 15th passage): over 120 times
CCCCCCCCn1cc[n+](Cc2ccc(Cn3cc[n+](Cc4ccc(C[n+]5ccn(Cc6ccc(CN)cc6)c5)cc4)c3)cc2)c1.[Br-].[Br-].[Br-] [F1-CH2NH2]	1000 µg/mL	250 mg/L	62 mg/L	125 mg/L	16 mg/L	
